Results reported in patent US9487476B2, “Catechol diethers as potent anti-HIV agents” (priority 2011, dated 2016).
Where two headings read alike, the source gives them in different places.

Experiments:
[1] = system: HIV-1 K103N/Y181C variant; settings: Table 5, literature data (ref. 28), MT4 cells; cited from earlier work
HIV-1 Y181C variant [2] = settings: Table 5, literature data (ref. 28), MT4 cells; cited from earlier work
WT HIV-1 [3] = settings: Table 5, literature data (ref. 28), MT4 cells; cited from earlier work
[4] = Cytotoxicity, inhibition of MT-2 cell growth; type: cell-based, human; settings: human
WT HIV-1 (IIIB strain) = experiment: Anti-HIV-1 activity, protection of infected MT-2 cells (MTT); type: cell-based
[5] = system: HIV-1 variant containing the K103N/Y181C mutations; experiment: Anti-HIV-1 activity against double-mutant strain in MT-2 cells (MTT); type: cell-based
[6] = system: HIV-1 variant containing the Y181C (Tyr181Cys) mutation; experiment: Anti-HIV-1 activity against variant strain in MT-2 cells (MTT); type: cell-based
MT-2 human T-cells = experiment: Cytotoxicity, inhibition of MT-2 cell growth; type: cell-based
[7] = system: HIV-1 K103N/Y181C variant; settings: literature; read-out: reported anti-HIV activity, K103N/Y181C; cited from earlier work
WT HIV-1 [8] = settings: literature; read-out: reported anti-HIV activity, WT HIV-1; cited from earlier work
HIV-1 Y181C variant [9] = settings: literature; read-out: reported anti-HIV activity, Y181C; cited from earlier work
MT4 cells = settings: Table 5, literature data (ref. 28); cited from earlier work
[10] = Human immunodeficiency virus 1, IIIB, MT2, read-out: Anti-HIV Activity (EC50)
[11] = Human immunodeficiency virus 1, MT2, read-out: EC50 K103N/Y181C
[12] = Human immunodeficiency virus 1, MT2, read-out: EC50 K103N/Y181C variant
[13] = Human immunodeficiency virus 1, MT2, read-out: EC50 Y181C
[14] = Human immunodeficiency virus 1, MT2, read-out: EC50 Y181C variant
[15] = Human immunodeficiency virus 1, IIIB, MT2, running text, read-out: EC50 against WT HIV-1
[16] = Table 4, MT-2 cells, read-out: Cytotoxicity (CC50)
[17] = Table 5, MT-2 cells, read-out: Average Cytotoxicity (CC50)
[18] = Table 5, MT-2 cells, read-out: EC50 K103N/Y181C
[19] = Table 4, catechol diether derivatives, MT-2 cells, read-out: Anti-HIV-1 Activity (EC50)
[20] = Table 5, MT-2 cells, read-out: EC50 WT
[21] = Table 5, MT-2 cells, read-out: EC50 Y181C

**Q.** Which results are given for `Cc1cc(C#N)cc(C)c1Oc1nc(Nc2ccc(C#N)cc2)nc(N)c1Br` [etravirine]?
**A.** EC50 [1]: 4 nM; EC50 (HIV-1 Y181C variant [2]): 7 nM

**Q.** For `O=C1Nc2ccc(Cl)cc2[C@@](C#CC2CC2)(C(F)(F)F)O1` [efavirenz], which EC50 [1] is on record?
**A.** 37 nM

**Q.** And the EC50 (HIV-1 Y181C variant [2])?
**A.** 2 nM

**Q.** What about the EC50 (WT HIV-1 [3]) of the same molecule?
**A.** 1.4 nM

**Q.** Which CC50 [4] does the source give for `Cc1cc2cc(Oc3cc(Cl)ccc3OCCn3ccc(=O)[nH]c3=O)ccc2o1` [JLJ538] here?
**A.** 8000 nM

**Q.** And the EC50 (WT HIV-1 (IIIB strain); [10])?
**A.** 25 nM

**Q.** With `N#Cc1cc2cc(Oc3ccccc3OCCn3ccc(=O)[nH]c3=O)ccn2c1` [JLJ555] as the molecule, how does the CC50 [4] read?
**A.** > 100000 nM

**Q.** What about the EC50 (WT HIV-1 (IIIB strain); [10]) of the same molecule?
**A.** 0.38 nM

**Q.** For `N#C/C=C/c1cc(Cl)cc(Oc2ccc(Cl)cc2OCCn2ccc(=O)[nH]c2=O)c1` [Compound 42, (E)-3-(3-chloro-5-(4-chloro-2-(2-(2,4-dioxo-3,4-dihydropyrimidin-1(2H)-yl)ethoxy)phenoxy)phenyl)acrylonitrile], which CC50 [4] is on record?
**A.** 10000 nM

**Q.** What about the EC50 [5, 11] of the same molecule?
**A.** 220 nM

**Q.** What about the EC50 [5, 12] of the same molecule?
**A.** 220 nM

**Q.** What about the therapeutic index (WT HIV-1 (IIIB strain); CC50 towards human T-cells vs WT EC50) of the same molecule?
**A.** > 180,000

**Q.** And the EC50 (WT HIV-1 (IIIB strain); Human immunodeficiency virus 1, IIIB, MT2, read-out: EC50, initial WT assay)?
**A.** 0.024 nM

**Q.** What about the EC50 (WT HIV-1 (IIIB strain); Human immunodeficiency virus 1, IIIB, MT2, running text, side-by-side re-assay, read-out: EC50 against WT HIV-1) of the same molecule?
**A.** 0.055 nM

**Q.** And the EC50 [6, 13]?
**A.** 49 nM

**Q.** What about the EC50 [6, 14] of the same molecule?
**A.** 49 nM

**Q.** What does the source list for `O=c1ccn(CCOc2ccc(Cl)cc2Oc2ccc3ccoc3c2)c(=O)[nH]1` [JLJ552]?
**A.** CC50 [4]: 50000 nM; EC50 (WT HIV-1 (IIIB strain); [10]): 900 nM

**Q.** Which results are given for `Cc1cc2cc(Oc3ccccc3OCCn3ccc(=O)[nH]c3=O)ccn2c1` [JLJ550]?
**A.** CC50 [4]: 9000 nM; EC50 (WT HIV-1 (IIIB strain); [10]): 50 nM

**Q.** Which CC50 (MT-2 human T-cells; human) does the source give for `N#Cc1cc(Cl)cc(Oc2ccc(Cl)cc2OCCn2cc(Cl)c(=O)[nH]c2=O)c1` [Compound 27, 3-chloro-5-(4-chloro-2-(2-(5-chloro-2,4-dioxo-3,4-dihydropyrimidin-1(2H)-yl)ethoxy)phenoxy)benzonitrile] here?
**A.** 21000 nM

**Q.** And the “ratio between variant and WT activities (K103N/Y181C / WT)” value [5]?
**A.** 34 fold

**Q.** And the EC50 [5, 11]?
**A.** 570 nM

**Q.** And the EC50 [5, 12]?
**A.** 570 nM

**Q.** And the EC50 (WT HIV-1 (IIIB strain); [15])?
**A.** 17 nM

**Q.** And the “ratio between variant and WT activities (Y181C/WT)” value [6]?
**A.** 14 fold

**Q.** And the EC50 [6, 13]?
**A.** 240 nM

**Q.** What about the EC50 [6, 14] of the same molecule?
**A.** 240 nM

**Q.** With `N#Cc1cc(Cl)cc(Oc2c(Cl)ccc(Cc3n[nH]c4nnccc34)c2F)c1` [Compound 73] as the molecule, how does the EC50 [7] read?
**A.** 4 nM

**Q.** And the EC50 (WT HIV-1 [8])?
**A.** 1 nM

**Q.** For `N#C/C=C/c1cc(F)cc(Oc2ccc(Cl)cc2OCCn2ccc(=O)[nH]c2=O)c1` [JLJ505], which CC50 (MT-2 human T-cells; [16]) is on record?
**A.** > 48000 nM

**Q.** What about the CC50 (MT-2 human T-cells; [17]) of the same molecule?
**A.** ≥ 48000 nM

**Q.** And the EC50 [5, 18]?
**A.** 900 nM

**Q.** And the EC50 (WT HIV-1 (IIIB strain); [19])?
**A.** 3.2 nM

**Q.** What about the EC50 (WT HIV-1 (IIIB strain); [20]) of the same molecule?
**A.** 3.2 nM

**Q.** And the EC50 [6, 21]?
**A.** 150 nM

**Q.** Which results are given for `N#C/C=C/c1cc(F)cc(Oc2ccc(F)cc2OCCn2ccc(=O)[nH]c2=O)c1` [JLJ506]?
**A.** CC50 (MT-2 human T-cells; [16]): > 45000 nM; CC50 (MT-2 human T-cells; [17]): ≥ 45000 nM; EC50 [5, 18]: 85 nM; EC50 (WT HIV-1 (IIIB strain); [19]): 0.342 nM; EC50 (WT HIV-1 (IIIB strain); [20]): 0.342 nM; EC50 [6, 21]: 16 nM

**Q.** For `N#Cc1cc(Cl)cc(Oc2cc(OCc3n[nH]c4ccccc34)ccc2Cl)c1` [Compound 72], which EC50 [7] is on record?
**A.** 141 nM

**Q.** And the EC50 (HIV-1 Y181C variant [9])?
**A.** 13.8 nM

**Q.** And the EC50 (WT HIV-1 [8])?
**A.** 4.7 nM

**Q.** Which results are given for `O=c1ccn(CCOc2ccccc2Oc2ccc3[nH]ccc3c2)c(=O)[nH]1` [JLJ547]?
**A.** CC50 [4]: 53000 nM; EC50 (WT HIV-1 (IIIB strain); [10]): 85 nM

**Q.** Which CC50 [4] does the source give for `O=c1ccn(CCOc2ccc(Cl)cc2Oc2ccc3occc3c2)c(=O)[nH]1` [JLJ539] here?
**A.** 19000 nM

**Q.** And the EC50 (WT HIV-1 (IIIB strain); [10])?
**A.** 800 nM

**Q.** Which results are given for `N#C/C=C/c1cc(Cl)cc(Oc2ccc(F)cc2OCCn2ccc(=O)[nH]c2=O)c1` [JLJ516]?
**A.** CC50 (MT-2 human T-cells; [16]): 62000 nM; CC50 (MT-2 human T-cells; [17]): 63000 nM; EC50 [5, 18]: 250 nM; EC50 (WT HIV-1 (IIIB strain); [19]): 0.77 nM; EC50 (WT HIV-1 (IIIB strain); [20]): 0.77 nM; EC50 [6, 21]: 60 nM

**Q.** Which EC50 [7] does the source give for `Cc1cc(C)cc(Oc2c(CSCc3ccco3)c(C)[nH]c(=O)c2I)c1` [Compound 3] here?
**A.** < 10 nM

**Q.** What about the EC50 (HIV-1 Y181C variant [9]) of the same molecule?
**A.** < 10 nM

**Q.** What does the source list for `CNc1ccc(Oc2cc(Cl)cc(/C=C/C#N)c2)c(OCCn2ccc(=O)[nH]c2=O)c1` [Compound 43, (E)-3-(3-chloro-5-(2-(2-(2,4-dioxo-3,4-dihydropyrimidin-1(2H)-yl)ethoxy)-4-(methylamino)phenoxy)phenyl)acrylonitrile]?
**A.** CC50 [4]: 30000 nM; EC50 (WT HIV-1 (IIIB strain); [15]): 20 nM; EC50 [6, 13]: 2800 nM

**Q.** What does the source list for `Cc1cc(/C=C/C#N)cc(C)c1Nc1ccnc(Nc2ccc(C#N)cc2)n1` [rilpivirine, 4-[[4-[[4-[(1E)-2-cyanoethenyl]-2,6-dimethylphenyl]amino]-2-pyrimidinyl]amino]benzonitrile]?
**A.** EC50 [1]: 1 nM; CC50 (MT-2 human T-cells; human): > 1000 nM; EC50 (HIV-1 Y181C variant [2]): 1.3 nM; CC50 (MT4 cells): 8000 nM; EC50 (WT HIV-1 [3]): 0.4 nM

**Q.** With `N#Cc1cc(Cl)cc(Oc2ccc(Cl)cc2OCCn2ccc(=O)[nH]c2=O)c1` [Compound 25, 3-chloro-5-(4-chloro-2-(2-(2,4-dioxo-3,4-dihydropyrimidin-1(2H)-yl)ethoxy)phenoxy)benzonitrile] as the molecule, how does the CC50 (MT-2 human T-cells; human) read?
**A.** > 100000 nM

**Q.** And the “cytotoxicity, limit of the tested concentration range” value (MT-2 human T-cells; human)?
**A.** > 100 µM

**Q.** And the EC50 [5, 11]?
**A.** 1700 nM

**Q.** And the EC50 (WT HIV-1 (IIIB strain); [15])?
**A.** 14 nM

**Q.** And the EC50 [6, 13]?
**A.** 520 nM
